Assay results as given in publication PMC10056899, “Neuroprotective and Antiherpetic Properties of Polyphenolic Compounds from Maackia amurensis Heartwood” (Molecules, 2023).
“And” between values parts separate entries of the source, which are not always exact repeats. Equal values may be shown once. Read-outs that look alike come from different tables or passages of the source.

Legend:
[1] = Ferric reducing antioxidant power (FRAP) assay; conditions: 4 min, pH 3.6
Description: The FRAP assay was carried out as described in [41]. We prepared FRAP reagent by mixing 2.5 mL of TPTZ (2,4,6-tris(2-pyridyl)-s-triazine) solution (10 mM) in 40 mM HCl and […] of FeCl3 solution (20 mM) in acetate buffer solution (300 mM, pH 3.6). Then, we added stilbenes 1–6 to 3 mL of FRAP reagent at concentrations from 1 to 34 µM. The mixture was kept in the dark at room temperature for 4 min. Then, we measured the absorbance at 595 nm using a Shimadzu UV 1240 spectrophotometer. Equation (2) was used to calculate the FRAP values of stilbenes 1–6:(2) FRAP=CFe/Cx, where: • CFe is the concentration of Fe^2+ (µM) formed in the reaction; • Cx is the concentration of polyphenolic compounds in the reacting mixture.
The concentration of Fe^2+ (µM) formed in the reaction was determined using the calibration curve obtained for different concentrations of FeSO4·7H2O.

[2] = system: PQ-treated Neuro-2a cells; assay: Intracellular ROS level in PQ-treated cells (H2DCF-DA); format: cell-based, murine; conditions: 10 μM, PQ 1 mM
Description: After 24 h of adhesion, Neuro-2a cells (1 × 10^4 cells/well) were incubated with stilbenes (0.01–10 µM) for 1 h. After that, we added PQ (1 mM) to each well and incubated the cells for 3 h. To study ROS formation, we added 20 µL of 2,7-dichlorodihydrofluorescein diacetate solution ([…], H2DCF-DA, Molecular Probes, Eugene, OR, USA) to each well, so that the concentration was 10 µM, and kept the microplate in a CO2–incubator for additional 30 min at 37 °C.

[3] = Cytotoxicity against Vero cells (MTT assay); format: cell-based; conditions: African green monkey (Chlorocebus sp.)
Description: (§1) The HSV-1 strain L2 and Vero cell culture (kidney epithelial cells of the African green monkey Chlorocebus sp.) were obtained from the N.F. Gamaleya Federal Research Centre for Epidemiology and Microbiology (Moscow, Russia). HSV-1 was grown in Vero cells, using Dulbecco′s Modified Eagle′s Medium (DMEM, Biolot, St. Petersburg, Russia) supplemented with 10% fetal bovine serum (FBS, Biolot, St. Petersburg, Russia) and 100 U/mL of gentamycin (Dalkhimpharm, Khabarovsk, Russia), at 37 °C in a CO2 incubator. In the maintenance medium, the FBS concentration was decreased to 1%.
(§2) The tested compounds were dissolved in DMSO (Sigma, St. Louis, MO, USA) at a concentration 10 mg/mL and stored at −20 °C. For cytotoxicity and anti-HSV-1 activity determination, the stock solutions were diluted with DMEM so that the final concentration of DMSO was 0.5%.
The cytotoxicity evaluation of the studied compounds was performed using the MTT assay, as described previously. In brief, confluent Vero cells in 96-well microplates (1 × 10^4 cells/well) were incubated with tested compounds at various concentrations (1–500 μg/mL) at 37 °C for 48 h (5% CO2). Untreated cells were used as controls. Then, MTT solution (methylthiazolyltetrazolium bromide, Sigma, St. Louis, MO, USA) was added to cells at a concentration of 5 mg/mL and the cells were incubated at 37 °C for 2 h. After dissolution of formazan crystals, optical densities were read at 540 nm (Labsystems Multiskan RC, Vantaa, Finland). […] [42]. Experiments were performed in triplicate and repeated three times.

HSV-1 = assay: Anti-HSV-1 activity, cytopathic effect (CPE) inhibition assay in Vero cells; format: cell-based, HSV-1 strain L2; conditions: for IC50: read-out: IC50 (CPE assay); for SI = CC50/IC50: Vero cells, HSV-1
Description: as §1, §2
The anti-HSV-1 activity of stilbenes was evaluated using cytopathic effect (CPE) inhibition assay in Vero cells. We infected the monolayer of cells grown in 96-well plates (1 × 10^4 cells/well) with 100 µL/well of virus suspension (100 TCD50/mL) and we simultaneously treated it with stilbenes 1–6 (100 µL/well) at various concentrations (from 1 to 400 μg/mL) for one hour at 37 ◦C. After virus absorption, we removed the mixture of virus and stilbenes, washed the cells, and added the maintenance medium with 1% FBS. […] We used MTT assay to evaluate the antiviral activity of stilbenes. The viral inhibition rate (IR, %) was calculated according to Equation (3):(3) IR, %=Atv−Acv/Acd−Acv×100, where: • Atv is the absorbance of cells infected with virus and treated with a polyphenolic compound; • Acv is the absorbance of the untreated virus-infected cells; • Acd is the absorbance of control (untreated and non-infected) cells.
The selectivity index (SI) was calculated as the ratio of CC50 to IC50. Experiments were repeated three times.

Row | SMILES | FRAP CFe2+(µM)/Cpolyphenolic compound (µM) [1] | FRAP CFe2+(µM)/Cpolyphenolic compound (μkg/mL) [1] | Reduction of intracellular ROS level in PQ-treated cells [2] [%] | CC50 at 48 h [3] | IC50 (HSV-1; Human alphaherpesvirus 1, Vero) | SI = CC50/IC50 (HSV-1) | IC50 (HSV-1; Human alphaherpesvirus 1, added to Vero cells simultaneously with the virus, 100 TCD50/mL)
1 | COc1ccc([C@@H]2COc3cc(O)ccc3[C@H]2c2c(O)cc(O)cc2/C=C/c2ccc(O)c(O)c2)c(O)c1 [Compound 1] | 12.36 ± 1.38 CFe2+(µM)/Cpolyphenolic compound (µM) | 24.04 ± 2.68 CFe2+(µM)/Cpolyphenolic compound (μkg/mL) | 17 | 162 µg/mL and 316 µM | 14 µg/mL and 27.2 µM | 11.6 ± 1.3 | –
2 | Oc1ccc(/C=C/c2cc(O)cc3c2[C@H](c2cc(O)cc(O)c2)[C@@H](c2ccc(O)c(O)c2)O3)cc1 [Compound 4, scirpusin A] | 11.44 ± 1.41 CFe2+(µM)/Cpolyphenolic compound (µM) | 24.34 ± 3.00 CFe2+(µM)/Cpolyphenolic compound (μkg/mL) | 7 | 199 µg/mL and 424 µM | – | 14.4 ± 1.7 | 13.8 µg/mL and 29.4 µM
